Data on one compound can be found in article doi:10.1101/2025.05.06.651509v2 (biorxiv, 2026).

In one assay the target is T1, TSC22D4 (Homo sapiens, UniProt Q9Y3Q8).
T1 sequence (Q9Y3Q8 1-395): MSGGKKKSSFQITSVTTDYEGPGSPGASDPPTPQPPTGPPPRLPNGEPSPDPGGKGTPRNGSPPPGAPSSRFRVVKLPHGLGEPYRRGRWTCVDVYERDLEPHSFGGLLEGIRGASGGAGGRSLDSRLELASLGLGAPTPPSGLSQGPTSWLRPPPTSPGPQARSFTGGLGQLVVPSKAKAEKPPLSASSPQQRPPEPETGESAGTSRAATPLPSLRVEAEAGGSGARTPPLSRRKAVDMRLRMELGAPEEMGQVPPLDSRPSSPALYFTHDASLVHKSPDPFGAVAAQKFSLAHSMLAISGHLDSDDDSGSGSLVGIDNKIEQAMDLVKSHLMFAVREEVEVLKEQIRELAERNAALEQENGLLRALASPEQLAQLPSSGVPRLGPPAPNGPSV
Description: microscale thermophoresis. Format: binding. The note with it: room temperature. In general terms: MST reads how a fluorescent partner responds to local heating, with and without ligand.

For the next assay, the target named is IGF2BP2 (Homo sapiens, UniProt Q9Y6M1). Description: microscale thermophoresis. Format: binding. To be noted: room temperature; legend of Figure 4A prints 12 μM.
Chain of IGF2BP2 (Q9Y6M1 whole entry): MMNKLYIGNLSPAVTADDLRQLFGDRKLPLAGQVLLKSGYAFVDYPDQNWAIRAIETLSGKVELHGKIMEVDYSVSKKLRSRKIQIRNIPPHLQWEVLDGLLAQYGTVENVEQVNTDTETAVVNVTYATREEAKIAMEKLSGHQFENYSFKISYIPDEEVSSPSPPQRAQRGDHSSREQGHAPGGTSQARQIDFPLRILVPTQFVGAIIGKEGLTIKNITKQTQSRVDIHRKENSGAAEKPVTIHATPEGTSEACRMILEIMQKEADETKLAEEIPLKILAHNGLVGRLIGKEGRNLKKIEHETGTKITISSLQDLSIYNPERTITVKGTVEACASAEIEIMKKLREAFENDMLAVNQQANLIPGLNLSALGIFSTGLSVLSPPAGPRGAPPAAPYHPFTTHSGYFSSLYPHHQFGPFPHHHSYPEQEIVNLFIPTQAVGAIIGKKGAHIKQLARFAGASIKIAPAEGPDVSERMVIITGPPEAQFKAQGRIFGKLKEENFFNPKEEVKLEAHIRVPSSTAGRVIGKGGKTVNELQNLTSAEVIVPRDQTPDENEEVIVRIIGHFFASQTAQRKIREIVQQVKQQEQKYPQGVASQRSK

By Kd is commonly meant a measure of binding affinity in units of concentration. Low readings indicate a tighter complex, high ones a looser complex. Regarding `OC[C@H]1OC(O)[C@H](O)[C@@H](O)[C@@H]1O` (some centres unmarked) [glucose], the Kd at TSC22D4 was ~464 µM; on IGF2BP2 it was 8.2 µM.
